Test results from paper PMC10746127, “New ψ-Santonin Derivatives from Crossostephium chinense and Their Anti-Proliferative Activities against Leishmania major and Human Cancer Cells A549” (Molecules, 2023).

System: Leishmania major
Test: anti-Leishmania major activity, MTT assay
Type: cell-based
Conditions: Leishmania major; MTT, 72 h, 25 °C, n = 3; read-out: IC50 L. major
Procedure: (§1) The anti-Leishmania major activities of the isolated compounds were evaluated using an MTT assay according to an established protocol. In brief, gradient concentrations of sample solutions in dimethyl sulfoxide (DMSO) and L. major (1 × 10^5 parasite/well) in 100 μL of M199 medium were added to a 96-well plate and then incubated for 72 h at 25 °C. An amount of 100 μL MTT solution was then replaced and incubated overnight. The absorbance of formazan solution in DMSO was measured using a microplate reader at 550 nm. Miltefosine was used as a positive control. The human lung cancer cell line A549 was cultured in 10% FCS-supplemented DMEM. The cytotoxicity assay of isolated compounds was also performed in 96-well plates using the MTT method. Various concentrations of samples in DMSO and A549 (5 × 10^3 cells/well) were cultured in a CO2 incubator for 72 h. The medium was then replaced with 100 μL MTT solution and incubated for 1.5 h in the same condition. The viability was calculated by the absorbance of formazan at 550 nm using a microplate reader. The cytotoxicity assay against the Vero cell line was conducted as in A549, which is mentioned above. Doxorubicin was used as a positive control. The concentration gradient of each activity was essentially set as 100, 50, 25, 12.5, and 6.25 μg/mL (Figures S67–S69).

Molecule	IC50
CC1=C2C3OC(=O)C(CN4CCCC4C(=O)O)C3C(O)CC2(C)C(=O)CC1 (stereo not drawn) [Compound 7, Crossoseamine E]	30.8 ± 5.81 µM
CC1=C2C3OC(=O)C(CN4CCCC4C(=O)O)C3CCC2(C)C(=O)CC1 (stereo not drawn) [Compound 6, Crossoseamine D]	52.6 ± 11.6 µM
CCCCCCCCCCCCCCCCOP(=O)([O-])OCC[N+](C)(C)C [miltefosine, reference compound]	18.1 ± 1.69 µM

Continued, values first:

IC50	Molecule
4.72 ± 1.26 µM	CC(=O)OC1CC2(C)C(=O)CCC(C)=C2C2OC(=O)C(CN3CCCC3C(=O)O)C12 (stereo not drawn) [Compound 5, Crossoseamine C]
0.81 ± 0.26 µM	C=C1C(=O)O[C@H]2C3=C(C)CCC(=O)[C@]3(C)C[C@H](OC(=O)C=C(C)C)[C@@H]12 [Compound 1, Crossostenin A]
3.75 ± 0.98 µM	C=C(C(=O)OC)[C@@H]1[C@@H](OC(=O)/C(C)=C/C)C[C@@]2(C)C(=O)CCC(C)=C2[C@H]1O [Compound 3, Crossostenin C]
7.66 ± 2.26 µM	C=C(C(=O)OC)[C@@H]1[C@@H](OC(=O)/C(C)=C\C)C[C@@]2(C)C(=O)CCC(C)=C2[C@H]1O [Compound 4, Crossostenin D]
0.96 ± 0.17 µM	C=C1C(=O)O[C@H]2C3=C(C)CCC(=O)[C@]3(C)C[C@H](OC(=O)/C(C)=C/C)[C@@H]12 [Compound 2, Crossostenin B]

Same assay, conditions: by comparing the cytotoxicity to the Vero cells

Molecule	SI1 (selective index, SI to L. major)
C=C1C(=O)O[C@H]2C3=C(C)CCC(=O)[C@]3(C)C[C@H](OC(=O)C=C(C)C)[C@@H]12 [Compound 1, Crossostenin A]	7.4
C=C1C(=O)O[C@H]2C3=C(C)CCC(=O)[C@]3(C)C[C@H](OC(=O)/C(C)=C/C)[C@@H]12 [Compound 2, Crossostenin B]	8.2

System: human lung cancer cell line A549
Test: cytotoxicity against A549, MTT method
Type: cell-based
Conditions: Homo sapiens, A549; MTT, 72 h, n = 3
Procedure: as §1

Molecule	IC50
CC1=C2C3OC(=O)C(CN4CCCC4C(=O)O)C3C(O)CC2(C)C(=O)CC1 (stereo not drawn) [Compound 7, Crossoseamine E]	58.9 ± 13.6 µM
COc1cccc2c1C(=O)c1c(O)c3c(c(O)c1C2=O)C[C@@](O)(C(=O)CO)C[C@@H]3O[C@H]1C[C@H](N)[C@H](O)[C@H](C)O1 [doxorubicin, reference compound]	0.45 ± 0.13 µM
CC1=C2C3OC(=O)C(CN4CCCC4C(=O)O)C3CCC2(C)C(=O)CC1 (stereo not drawn) [Compound 6, Crossoseamine D]	83.9 ± 12.1 µM
CC(=O)OC1CC2(C)C(=O)CCC(C)=C2C2OC(=O)C(CN3CCCC3C(=O)O)C12 (stereo not drawn) [Compound 5, Crossoseamine C]	17.4 ± 1.86 µM
C=C1C(=O)O[C@H]2C3=C(C)CCC(=O)[C@]3(C)C[C@H](OC(=O)C=C(C)C)[C@@H]12 [Compound 1, Crossostenin A]	2.97 ± 0.58 µM
C=C(C(=O)OC)[C@@H]1[C@@H](OC(=O)/C(C)=C/C)C[C@@]2(C)C(=O)CCC(C)=C2[C@H]1O [Compound 3, Crossostenin C]	5.59 ± 0.72 µM
C=C(C(=O)OC)[C@@H]1[C@@H](OC(=O)/C(C)=C\C)C[C@@]2(C)C(=O)CCC(C)=C2[C@H]1O [Compound 4, Crossostenin D]	17.1 ± 1.86 µM
C=C1C(=O)O[C@H]2C3=C(C)CCC(=O)[C@]3(C)C[C@H](OC(=O)/C(C)=C/C)[C@@H]12 [Compound 2, Crossostenin B]	2.3 ± 0.26 µM

Same assay, conditions: by comparing the cytotoxicity to the Vero cells

Molecule	SI2 (selective index, SI to A549)
C=C1C(=O)O[C@H]2C3=C(C)CCC(=O)[C@]3(C)C[C@H](OC(=O)C=C(C)C)[C@@H]12 [Compound 1, Crossostenin A]	2.0
C=C1C(=O)O[C@H]2C3=C(C)CCC(=O)[C@]3(C)C[C@H](OC(=O)/C(C)=C/C)[C@@H]12 [Compound 2, Crossostenin B]	3.4

System: Vero cells
Test: cytotoxicity against Vero cell line, MTT method
Type: cell-based
Conditions: Chlorocebus sabaeus, 72 h, n = 3
Procedure: as §1

Molecule	IC50
CC1=C2C3OC(=O)C(CN4CCCC4C(=O)O)C3C(O)CC2(C)C(=O)CC1 (stereo not drawn) [Compound 7, Crossoseamine E]	23.8 ± 2.47 µM
COc1cccc2c1C(=O)c1c(O)c3c(c(O)c1C2=O)C[C@@](O)(C(=O)CO)C[C@@H]3O[C@H]1C[C@H](N)[C@H](O)[C@H](C)O1 [doxorubicin, reference compound]	3.82 ± 0.79 µM
CC1=C2C3OC(=O)C(CN4CCCC4C(=O)O)C3CCC2(C)C(=O)CC1 (stereo not drawn) [Compound 6, Crossoseamine D]	48.5 ± 4.07 µM
CC(=O)OC1CC2(C)C(=O)CCC(C)=C2C2OC(=O)C(CN3CCCC3C(=O)O)C12 (stereo not drawn) [Compound 5, Crossoseamine C]	11.4 ± 0.98 µM
C=C1C(=O)O[C@H]2C3=C(C)CCC(=O)[C@]3(C)C[C@H](OC(=O)C=C(C)C)[C@@H]12 [Compound 1, Crossostenin A]	5.99 ± 0.76 µM
C=C(C(=O)OC)[C@@H]1[C@@H](OC(=O)/C(C)=C/C)C[C@@]2(C)C(=O)CCC(C)=C2[C@H]1O [Compound 3, Crossostenin C]	6.2 ± 1.36 µM
C=C(C(=O)OC)[C@@H]1[C@@H](OC(=O)/C(C)=C\C)C[C@@]2(C)C(=O)CCC(C)=C2[C@H]1O [Compound 4, Crossostenin D]	17.2 ± 1.36 µM
C=C1C(=O)O[C@H]2C3=C(C)CCC(=O)[C@]3(C)C[C@H](OC(=O)/C(C)=C/C)[C@@H]12 [Compound 2, Crossostenin B]	7.84 ± 0.61 µM

System: L. major
Test: not given
Set-up: method as in PMID 37375252
Conditions: isolated from the EtOAc layer; cited from earlier work

Molecule	cytotoxicity against L. major
crossoseamine B	potent cytotoxicity
crossoseamine A	potent cytotoxicity
